Values after ≈ are worked out from the molar mass of the structure shown.
Experiments:
K.P. A-1797 KPC-2 VIM-4 [1] = experiment: Broth microdilution MIC, K. pneumoniae A-1797; type: cell-based; settings: Klebsiella pneumoniae; partner antibiotic alone, K. pneumoniae expressing KPC-2 and VIM-4
K.P. 156319 KPC-3 = experiment: Broth microdilution MIC, K. pneumoniae 156319; type: cell-based
S. aureus MSSA-7 PC-1 = experiment: Broth microdilution MIC, S. aureus MSSA-7; type: cell-based; settings: Staphylococcus aureus, partner antibiotic alone, S. aureus producing Class A penicillinase PC-1
p99 AmpC = target: T1, p99 AmpC (Enterobacter cloacae, UniProt P05364); experiment: β-Lactamase inhibition, p99 AmpC (nitrocefin substrate); type: biochemical
T1 construct: made in house; host or cells: E. coli BL21 (DE3)
Experimental: (§1) For SHV-5, Kpc-2, p99AmpC and OXA-1 β-lactamases, E. coli BL21 (DE3) bacterial cells carrying expression plasmids (expressed as native untagged proteins) for the individual β-lactamases were grown in 1 L of Superbroth (Teknova Inc. Hollister, Calif.) supplemented with 100 μg/ml kanamycin selection and 1×5052 (0.5% glycerol, 0.05% glucose and 0.2% α-lactose) at 35° C. for 18-20 hours. Cells were harvested by centrifugation (4,000×g, 4° C., 20 min), resuspended in 50 ml of 10 mM HEPES pH 7.5 ( 1/20 of the initial volume). The cells were lysed by sonication (5 pulses of 45 seconds) at 45 W on ice. The lysates were clarified by centrifugation at 10,000×g for 40 minutes at 4° C. Samples were diluted 5-fold in 50 mM sodium acetate pH 5.0, stored overnight at 4° C., after which they were centrifuged at 10,000×g for 30 minutes to clarify, and filtered through 0.45 µm filters. The samples were loaded onto a 5 ml Capto S sepharose cation exchange column (GE Healthcare) pre-equilibrated with 50 mM sodium acetate pH 5.0. The column was washed with 5 column volumes of 50 mM sodium acetate pH 5.0 to wash out unbound protein and a linear gradient of NaCl (0 to 500 mM) was used to elute the protein (over 16 CV) from the column. Fractions were assayed for β-lactamase activity using Centa (Calbiochem, Gibbstown, N.J.) or Nitrocefin (EMD Millipore chemicals, Darmstadt, Germany) as a reporter β-lactamase substrate for activity in the isolated fractions. Active fractions were pooled, concentrated and further purified by gel filtration chromatography on a Superdex 75 prep grade gel filtration column (GE Healthcare, Piscataway, N.J.) pre-equilibrated in 50 mM Hepes pH 7.5, 150 mM NaCl. Active fractions were pooled concentrated, quantitated by BCA protein determination (Thermo Scientific, Rockford, Ill.), dialyzed into PBS and frozen at −80° C. in 20% glycerol until use.
(§2) An equal volume of diluted enzyme stock was added, and the plates were incubated at 37° C. for 15 min. Nitrocefin was used as substrate for p99 AmpC, VIM-2 and OXA-1 and dispensed into each well at a final concentration of 100 μM. Absorbance at 486 nm was immediately monitored for 10 min using a Biotek Powerwave XS2 microplate spectrophotometer using the GEN5 software package (Biotek Instruments, Winooski Vt.). In an analogous fashion, imipenem was used as substrate for Kpc-2 and Cefotaxime was used for SHV-5, while changes in absorbance upon hydrolysis of the β-lactam ring were monitored at 300 nm and 260 nm respectively in UV-transparent 96-well microtiter assay plates. Maximum rates of hydrolysis were compared to those in control wells (without inhibitors), and percentages of enzyme inhibition were calculated for each concentration of inhibitor. The concentration of inhibitor needed to reduce the initial rate of hydrolysis of substrate by 50% (IC50) was calculated as the residual activity of β-lactamase at 486 nm using GraFit version 7 kinetics software package (Erithacus Software, Surrey, UK).
Using the methodology described above, examples of the current invention were evaluated for their ability to inhibit β-lactamase enzymes from all four Ambler classifications (A through D). […] NT=Not tested.

OXA-1 = target: T2, OXA-1 (Escherichia coli, UniProt P13661); experiment: β-Lactamase inhibition, OXA-1 (nitrocefin substrate); type: biochemical
T2 construct: made in house; host or cells: E. coli BL21 (DE3)
Experimental: as §1, with “The column was washed with 5 column volumes of 50 mM sodium acetate pH 5.0 to wash out unbound protein and a linear gradient of NaCl (0 to 500 mM) was used to elute the protein (over 16 CV) from the column. Fractions were assayed for β-lactamase activity using Centa (Calbiochem, Gibbstown, N.J.) or Nitrocefin (EMD Millipore chemicals, Darmstadt, Germany) as a reporter β-lactamase substrate for activity in the isolated fractions. Active fractions were pooled, concentrated and further purified by gel filtration chromatography on a Superdex 75 prep grade gel filtration column (GE Healthcare, Piscataway, N.J.) pre-equilibrated in 50 mM Hepes pH 7.5, 150 mM NaCl.” left out
as §2, with “Nitrocefin was used as substrate for p99 AmpC, VIM-2 and OXA-1 and dispensed into each well at a final concentration of 100 μM.” left out, “The concentration of inhibitor needed to reduce the initial rate of hydrolysis of substrate by 50% (IC50) was calculated as the residual activity of β-lactamase at 486 nm using GraFit version 7 kinetics software package (Erithacus Software, Surrey, UK).” left out

P. aerug. Ps296 VIM-2 = experiment: Broth microdilution MIC, P. aeruginosa Ps296; type: cell-based; settings: fixed meropenem 4 μg/mL, CAMHB, 16-20 hours 37° C.
Method in brief: (§3)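 CAMHB; compound 32–0.25 μg/mL, 2-fold dilutions; β-lactam partner static at 4 μg/ml; CLSI inoculum from 3-5 h culture; 16-20 h, 37° C; visual MIC.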

E. cl 144200 p99 AmpC = experiment: Broth microdilution MIC, E. cloacae 144200; type: cell-based; settings: fixed ceftazidime 4 μg/mL, CAMHB, 16-20 hours 37° C.
Method in brief: as §3

E. coli ESBL4 CTX-M-15 = experiment: Broth microdilution MIC, E. coli ESBL4; type: cell-based; settings: fixed ceftazidime 4 μg/mL, CAMHB, 16-20 hours 37° C.
Method in brief: as §3

KPC-2 = target: T3, KPC-2 (Klebsiella pneumoniae, UniProt Q9F663); experiment: β-Lactamase inhibition, KPC-2 (imipenem substrate); type: biochemical
T3 construct: made in house; host or cells: E. coli BL21 (DE3)
Experimental: as §1, with “The column was washed with 5 column volumes of 50 mM sodium acetate pH 5.0 to wash out unbound protein and a linear gradient of NaCl (0 to 500 mM) was used to elute the protein (over 16 CV) from the column. Fractions were assayed for β-lactamase activity using Centa (Calbiochem, Gibbstown, N.J.) or Nitrocefin (EMD Millipore chemicals, Darmstadt, Germany) as a reporter β-lactamase substrate for activity in the isolated fractions. Active fractions were pooled, concentrated and further purified by gel filtration chromatography on a Superdex 75 prep grade gel filtration column (GE Healthcare, Piscataway, N.J.) pre-equilibrated in 50 mM Hepes pH 7.5, 150 mM NaCl.” left out
as §2, with “Nitrocefin was used as substrate for p99 AmpC, VIM-2 and OXA-1 and dispensed into each well at a final concentration of 100 μM.” left out, “The concentration of inhibitor needed to reduce the initial rate of hydrolysis of substrate by 50% (IC50) was calculated as the residual activity of β-lactamase at 486 nm using GraFit version 7 kinetics software package (Erithacus Software, Surrey, UK).” left out

VIM-2 = target: T4, VIM-2 (Escherichia coli, UniProt Q5U7L7); experiment: β-Lactamase inhibition, VIM-2 (nitrocefin substrate); type: biochemical
T4 construct: made in house; host or cells: E. coli BL21 (DE3)
Experimental: as §1, with “The column was washed with 5 column volumes of 50 mM sodium acetate pH 5.0 to wash out unbound protein and a linear gradient of NaCl (0 to 500 mM) was used to elute the protein (over 16 CV) from the column. Fractions were assayed for β-lactamase activity using Centa (Calbiochem, Gibbstown, N.J.) or Nitrocefin (EMD Millipore chemicals, Darmstadt, Germany) as a reporter β-lactamase substrate for activity in the isolated fractions. Active fractions were pooled, concentrated and further purified by gel filtration chromatography on a Superdex 75 prep grade gel filtration column (GE Healthcare, Piscataway, N.J.) pre-equilibrated in 50 mM Hepes pH 7.5, 150 mM NaCl.” left out, “use. […]” for “use.”
as §2, with “Nitrocefin was used as substrate for p99 AmpC, VIM-2 and OXA-1 and dispensed into each well at a final concentration of 100 μM.” left out, “The concentration of inhibitor needed to reduce the initial rate of hydrolysis of substrate by 50% (IC50) was calculated as the residual activity of β-lactamase at 486 nm using GraFit version 7 kinetics software package (Erithacus Software, Surrey, UK).” left out

SHV-5 = target: T5, SHV-5 (Klebsiella pneumoniae, UniProt P0A3M1); experiment: β-Lactamase inhibition, SHV-5 (cefotaxime substrate); type: biochemical
T5 construct: made in house; host or cells: E. coli BL21 (DE3)
Experimental: as §1, with “The column was washed with 5 column volumes of 50 mM sodium acetate pH 5.0 to wash out unbound protein and a linear gradient of NaCl (0 to 500 mM) was used to elute the protein (over 16 CV) from the column. Fractions were assayed for β-lactamase activity using Centa (Calbiochem, Gibbstown, N.J.) or Nitrocefin (EMD Millipore chemicals, Darmstadt, Germany) as a reporter β-lactamase substrate for activity in the isolated fractions. Active fractions were pooled, concentrated and further purified by gel filtration chromatography on a Superdex 75 prep grade gel filtration column (GE Healthcare, Piscataway, N.J.) pre-equilibrated in 50 mM Hepes pH 7.5, 150 mM NaCl.” left out
as §2, with “Nitrocefin was used as substrate for p99 AmpC, VIM-2 and OXA-1 and dispensed into each well at a final concentration of 100 μM.” left out, “The concentration of inhibitor needed to reduce the initial rate of hydrolysis of substrate by 50% (IC50) was calculated as the residual activity of β-lactamase at 486 nm using GraFit version 7 kinetics software package (Erithacus Software, Surrey, UK).” left out

K.P. A-1797 KPC-2 VIM-4 [2] = experiment: Broth microdilution MIC, K. pneumoniae A-1797; type: cell-based; settings: fixed meropenem 4 μg/mL, CAMHB, 16-20 hours 37° C.

T5 sequence (P0A3M1 22-286): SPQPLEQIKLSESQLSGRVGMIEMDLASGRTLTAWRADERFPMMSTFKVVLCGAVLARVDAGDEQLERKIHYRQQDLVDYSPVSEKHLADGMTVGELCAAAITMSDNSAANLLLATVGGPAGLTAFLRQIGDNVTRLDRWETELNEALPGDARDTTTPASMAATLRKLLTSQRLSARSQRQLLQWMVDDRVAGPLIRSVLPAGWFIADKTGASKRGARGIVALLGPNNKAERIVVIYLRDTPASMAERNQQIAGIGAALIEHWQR
T1 sequence (P05364 21-381): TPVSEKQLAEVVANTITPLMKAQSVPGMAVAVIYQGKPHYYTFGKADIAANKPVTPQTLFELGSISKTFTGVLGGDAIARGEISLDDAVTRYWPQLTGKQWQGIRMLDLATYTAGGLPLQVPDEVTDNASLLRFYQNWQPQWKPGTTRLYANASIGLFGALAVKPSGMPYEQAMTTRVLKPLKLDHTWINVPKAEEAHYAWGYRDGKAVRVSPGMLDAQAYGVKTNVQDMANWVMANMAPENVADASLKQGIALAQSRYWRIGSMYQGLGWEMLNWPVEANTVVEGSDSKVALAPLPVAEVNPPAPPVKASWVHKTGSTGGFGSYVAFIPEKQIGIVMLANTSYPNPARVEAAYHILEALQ
T2 sequence (P13661 26-276): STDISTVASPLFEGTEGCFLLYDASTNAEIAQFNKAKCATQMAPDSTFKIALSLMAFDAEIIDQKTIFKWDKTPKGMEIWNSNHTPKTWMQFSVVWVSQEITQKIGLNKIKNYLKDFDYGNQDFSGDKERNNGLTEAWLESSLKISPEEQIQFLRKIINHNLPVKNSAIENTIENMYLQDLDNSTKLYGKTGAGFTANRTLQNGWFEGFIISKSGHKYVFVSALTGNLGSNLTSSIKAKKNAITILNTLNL
T3 sequence (Q9F663 25-293 limits assumed): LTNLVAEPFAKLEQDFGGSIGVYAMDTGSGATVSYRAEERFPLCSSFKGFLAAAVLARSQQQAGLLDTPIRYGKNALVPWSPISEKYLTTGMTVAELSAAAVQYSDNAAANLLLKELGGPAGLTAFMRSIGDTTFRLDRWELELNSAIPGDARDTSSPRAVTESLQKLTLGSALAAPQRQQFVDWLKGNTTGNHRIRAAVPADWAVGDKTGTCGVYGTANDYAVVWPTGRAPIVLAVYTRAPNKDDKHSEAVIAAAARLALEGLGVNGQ

Molecule `C[C@@H](O)[C@H]1C(=O)N2C(C(=O)O)=C(S[C@@H]3CN[C@H](C(=O)N(C)C)C3)[C@H](C)[C@H]12` [Meropenem, reference compound] has an MIC (K.P. A-1797 KPC-2 VIM-4 [1]) of 64 µg/mL (≈ 167 µM) and an MIC (K.P. 156319 KPC-3; Klebsiella pneumoniae, read-out: MIC alone) greater than 128 µg/mL.

With `CCN1CCN(C(=O)N[C@@H](C(=O)N[C@@H]2C(=O)N3[C@@H]2SC(C)(C)[C@@H]3C(=O)O)c2ccccc2)C(=O)C1=O` [Piperacillin] the MIC (S. aureus MSSA-7 PC-1) was 64 µg/mL (≈ 124 µM).

With `N[C@H]1CC(C(=O)N[C@H]2Cc3cccc(C(=O)O)c3OB2O)C[C@@H]1N` (mixture of isomers) [Example 19, (3R)-3-[[(3S,4S)-3,4-diaminocyclopentanecarbonyl]amino]-2-hydroxy-3,4-dihydro-1,2-benzoxaborinine-8-carboxylic acid and (3R)-3-[[(3R,4R)-3,4-diaminocyclopentanecarbonyl]amino]-2-hydroxy-3,4-dihydro-1,2-benzoxaborinine-8-carboxylic acid] the IC50 (p99 AmpC) was less than 100 nM, the IC50 (OXA-1) was less than 100 nM and the “MIC of exemplary compounds in presence of fixed β-lactams, Fixed Mero, K.P. 156319 KPC-3” value (K.P. 156319 KPC-3; fixed meropenem 4 μg/mL, CAMHB, 16-20 hours 37° C.) was “C (C represents the MIC in the presence of <4 μg/mL of a β-lactamase inhibitor of exemplary compounds)”. For the same molecule, the “MIC of exemplary compounds in presence of fixed β-lactams, Fixed Mero, P. aerug. Ps296 VIM-2” value (P. aerug. Ps296 VIM-2) was “C (C represents the MIC in the presence of <4 μg/mL of a β-lactamase inhibitor of exemplary compounds)”, the “MIC of exemplary compounds in presence of fixed β-lactams, Fixed CAZ, E. cl 144200 p99 AmpC” value (E. cl 144200 p99 AmpC) was “C (C represents the MIC in the presence of <4 μg/mL of a β-lactamase inhibitor of exemplary compounds)” and the “MIC of exemplary compounds in presence of fixed β-lactams, Fixed CAZ, E. coli ESBL4 CTX-M-15” value (E. coli ESBL4 CTX-M-15) was “C (C represents the MIC in the presence of <4 μg/mL of a β-lactamase inhibitor of exemplary compounds)”. The IC50 (KPC-2) was less than 100 nM, the IC50 (VIM-2) was less than 100 nM and the IC50 (SHV-5) was 100 to 1000 nM. The “MIC of exemplary compounds in presence of fixed β-lactams, Fixed Mero, K.P. A-1797 KPC-2 VIM-4” value (K.P. A-1797 KPC-2 VIM-4 [2]) was “C (C represents the MIC in the presence of <4 μg/mL of a β-lactamase inhibitor of exemplary compounds)”.

Source: US10669290B2, “Beta-lactamase inhibitors” (priority 2012, dated 2020)
